In one assay the target is T1, 5-HT1AR + GαoA (Homo sapiens, UniProt P08908).
T1 construct: host or cells: HEK293AΔGi/o
The experiment in a line: GloSensor cAMP in HEK293AΔGi/o co-transfected with GαoA. The assay is classed as cell-based.

The target of another assay is T2, 5-HT6R (Homo sapiens, UniProt P50406).
T2 construct: host or cells: HEK293T, transient; membranes
The experiment in a line: Radioligand competition, displacement of [3H]LSD. The assay is classed as binding. For orientation: In a radioligand displacement assay an active substance lowers the binding of a labelled ligand.

The target in assay [1] is T3, 5-HT1AR F112^3.28W (Homo sapiens, UniProt P08908, F112W).
T3 sequence (P08908 1-422 F112W): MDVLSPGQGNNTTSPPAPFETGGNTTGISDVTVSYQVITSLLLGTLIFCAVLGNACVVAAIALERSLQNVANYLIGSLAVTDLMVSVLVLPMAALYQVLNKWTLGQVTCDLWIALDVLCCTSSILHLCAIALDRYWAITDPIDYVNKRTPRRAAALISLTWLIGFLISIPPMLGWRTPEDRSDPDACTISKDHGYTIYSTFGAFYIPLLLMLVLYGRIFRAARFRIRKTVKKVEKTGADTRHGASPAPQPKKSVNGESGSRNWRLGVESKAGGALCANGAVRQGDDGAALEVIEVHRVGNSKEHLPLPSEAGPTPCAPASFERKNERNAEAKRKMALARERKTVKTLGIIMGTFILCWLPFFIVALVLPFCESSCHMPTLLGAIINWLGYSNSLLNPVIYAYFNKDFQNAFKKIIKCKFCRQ
The experiment in a line: GloSensor inhibition of cAMP accumulation in HEK293AΔGs. It is filed as cell-based. The following applies: for Emax: read-out: Emax [% ± SEM], inhibition of cAMP accumulation. Background: Cyclic AMP is a second messenger, typically raised through Gs and lowered through Gi signalling.

For assay [2], the target named is T4, 5-HT1AR F112^3.28W + M92^2.60F (Homo sapiens, UniProt P08908, F112W/M92F).
T4 sequence (P08908 1-422 M92F/F112W): T3 sequence (P08908 1-422 F112W) with M92F
The description is as above. The note with it: for Emax: read-out: Emax [% ± SEM], inhibition of cAMP accumulation. The assay is classed as cell-based.

Assay [3] addresses T3, 5-HT1AR F112^3.28W. The assay can be described thus: GloSensor cAMP assay in HEK293A cells. The assay is classed as cell-based.
The target of a further assay is T5, 5-HT2AR (Homo sapiens, UniProt P28223).
T5 construct: whole cells for IP-One
The experiment in a line: Radioligand competition, displacement of [3H]ketanserin. The assay is classed as binding.

The target of another assay is T6, 5-HT1AR (Homo sapiens, UniProt P08908).
T6 sequence (P08908 1-422): T3 sequence (P08908 1-422 F112W) with W112F
The assay can be described thus: GloSensor cAMP assay in HEK293A cells deficient of β-arrestins. Also noted: host or cells: HEK293T, HEK293A, HEK293AΔGs, HEK293AΔGi/o, HEK293AΔARRB1/B2. The assay is classed as cell-based.

Another assay concerns the target T7, 5-HT1AR Q97^2.65A (Homo sapiens, UniProt P08908, Q97A).
T7 sequence (P08908 1-422 Q97A): T3 sequence (P08908 1-422 F112W) with Q97A, W112F
The experiment in a line: GloSensor cAMP accumulation in HEK293AΔGi/o. It is filed as cell-based. The note with it: read-out: Emax [% ± SEM], cAMP accumulation.

The target in assay [4] is T4, 5-HT1AR F112^3.28W + M92^2.60F. The assay can be described thus: GloSensor cAMP assay in HEK293A cells. The assay is classed as cell-based.
[5] abbreviates: HEK293-A, read-out: Emax [%±SEM], inhibition of cAMP accumulation.
[6] abbreviates: HEK293-A; read-out: Emax [%±SEM], inhibition of cAMP accumulation.

Numbering of substitutions follows the chain as printed. Where two headings read alike, the source gives them in different places.

T5 sequence (P28223 whole entry): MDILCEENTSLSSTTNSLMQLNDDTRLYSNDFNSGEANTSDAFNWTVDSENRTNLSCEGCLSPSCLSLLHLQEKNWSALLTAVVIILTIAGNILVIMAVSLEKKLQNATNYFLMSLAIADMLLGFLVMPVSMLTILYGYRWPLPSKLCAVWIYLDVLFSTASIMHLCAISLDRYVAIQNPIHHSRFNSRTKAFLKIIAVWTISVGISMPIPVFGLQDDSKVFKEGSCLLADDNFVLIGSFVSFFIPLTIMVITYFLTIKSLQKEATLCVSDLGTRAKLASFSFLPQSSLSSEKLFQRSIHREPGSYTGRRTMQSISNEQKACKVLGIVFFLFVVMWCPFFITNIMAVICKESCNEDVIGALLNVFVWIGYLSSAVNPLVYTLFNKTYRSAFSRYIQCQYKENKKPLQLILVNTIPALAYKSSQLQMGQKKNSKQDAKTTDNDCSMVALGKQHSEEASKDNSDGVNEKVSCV
T1 sequence (P08908 whole entry): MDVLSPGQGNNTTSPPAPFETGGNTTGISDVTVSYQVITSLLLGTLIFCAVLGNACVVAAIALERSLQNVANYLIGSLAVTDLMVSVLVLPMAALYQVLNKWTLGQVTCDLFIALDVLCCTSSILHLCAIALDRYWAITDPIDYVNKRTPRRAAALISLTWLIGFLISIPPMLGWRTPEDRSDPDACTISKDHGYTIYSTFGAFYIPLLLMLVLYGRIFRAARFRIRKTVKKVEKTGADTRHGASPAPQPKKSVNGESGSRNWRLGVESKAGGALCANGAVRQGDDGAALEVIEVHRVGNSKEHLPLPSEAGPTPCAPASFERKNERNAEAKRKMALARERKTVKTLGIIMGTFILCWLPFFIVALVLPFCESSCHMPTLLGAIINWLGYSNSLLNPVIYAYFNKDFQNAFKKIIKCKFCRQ
T1 sequence (P09471 2-354 partner limits assumed): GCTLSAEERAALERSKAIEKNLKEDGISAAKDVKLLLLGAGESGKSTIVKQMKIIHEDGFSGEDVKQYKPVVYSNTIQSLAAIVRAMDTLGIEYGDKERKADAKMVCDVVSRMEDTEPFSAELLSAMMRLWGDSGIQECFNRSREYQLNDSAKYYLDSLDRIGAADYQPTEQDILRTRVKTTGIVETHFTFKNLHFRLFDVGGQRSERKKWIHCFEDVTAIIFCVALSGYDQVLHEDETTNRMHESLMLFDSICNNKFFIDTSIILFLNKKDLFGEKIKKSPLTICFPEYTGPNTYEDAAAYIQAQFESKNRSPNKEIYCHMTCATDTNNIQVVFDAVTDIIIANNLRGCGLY
T2 sequence (P50406 whole entry): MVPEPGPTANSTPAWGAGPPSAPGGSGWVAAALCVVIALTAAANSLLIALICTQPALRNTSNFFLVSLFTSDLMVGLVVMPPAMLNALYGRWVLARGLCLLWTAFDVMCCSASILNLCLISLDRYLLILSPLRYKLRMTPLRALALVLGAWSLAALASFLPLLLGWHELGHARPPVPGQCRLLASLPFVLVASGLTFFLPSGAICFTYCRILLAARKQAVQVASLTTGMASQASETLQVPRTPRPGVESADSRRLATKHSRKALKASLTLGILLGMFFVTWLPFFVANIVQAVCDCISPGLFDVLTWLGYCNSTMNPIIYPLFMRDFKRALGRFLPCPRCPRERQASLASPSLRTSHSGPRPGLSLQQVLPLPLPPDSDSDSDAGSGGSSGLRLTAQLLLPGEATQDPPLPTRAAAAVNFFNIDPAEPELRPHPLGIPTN

In general, Emax refers to the maximal effect, on the per cent scale that the assay sets. One may read the EC50 as the midpoint of the concentration-response curve. Regarding `COc1ccccc1OCCNCCCOc1ccc2c(c1)NC(=O)CO2` [ST171], the maximum response (Emax) at 5-HT1AR + GαoA was 100%; on 5-HT1AR F112^3.28W [1], 69 ± 8%; in [2], 85 ± 11%; at 5-HT1AR F112^3.28W [3] (setting [5]) it was 77 ± 9%; at 5-HT1AR (setting [5]), 60%; at 5-HT1AR Q97^2.65A, < 5%. Besides, the maximum response (Emax) in [4] (setting [5]) was 77 ± 5%. Further, the EC50 on 5-HT1AR + GαoA (HEK293AΔGi/o + GαoA, read-out: EC50 [nM ± SEM], inhibition of cAMP accumulation) is 4.1 ± 1 nM; at 5-HT1AR F112^3.28W [1] (HEK293AΔGs, F112W, read-out: EC50 [nM ± SEM], inhibition of cAMP accumulation) it was 2.2 ± 0.3 nM; in [2] (HEK293AΔGs, F112W + M92F, read-out: EC50 [nM ± SEM], inhibition of cAMP accumulation), 1.8 ± 0.6 nM; on 5-HT1AR F112^3.28W [3] (HEK293A, GloSensor, F112W; read-out: EC50 left [nM±SEM], inhibition of cAMP accumulation), 1.7 ± 0.5 nM; at 5-HT1AR (HEK Δβ-arrestin, GloSensor; read-out: EC50 left [nM±SEM], inhibition of cAMP accumulation), 3.5 ± 1 nM; in assay [4] (HEK293A, GloSensor, F112W + M92F; read-out: EC50 left [nM±SEM], inhibition of cAMP accumulation) it was 1.7 ± 0.4 nM. Moreover, the Ki on 5-HT6R (5-HT6, read-out: pKi (converted)) is 3080 nM; on 5-HT6R (5-HT6R, HEK 293T membranes, read-out: Ki [nM ± SEM]), 3300 ± 300 nM; on 5-HT2AR (5-HT2A, read-out: pKi (converted)), 260 nM; on 5-HT2AR (5-HT2AR, HEK 293T membranes, read-out: Ki [nM ± SEM]), 280 ± 30 nM.

With `Cc1ccc(CNCC2(F)CCN(C(=O)c3ccc(F)c(Cl)c3)CC2)nc1` [befiradol, reference compound], the Emax at 5-HT1AR + GαoA was 107 ± 3%; on 5-HT1AR F112^3.28W [1], 95 ± 5%; in assay [2], 99 ± 7%; on 5-HT1AR F112^3.28W [3] (setting [6]) it was 96 ± 4%; on 5-HT1AR (setting [6]) it was 89 ± 4%; at 5-HT1AR Q97^2.65A, 60 ± 2%. Also, the Emax in [4] (setting [6]) was 92 ± 7%. Moreover, the values for the Ki at 5-HT6R and on 5-HT2AR were > 50000 nM and 15000 nM, respectively. The “Esat [%±SEM]” value at 5-HT1AR F112^3.28W [3] (HEK293A, GloSensor, F112W) was found to be 90 ± 4%; at 5-HT1AR (HEK Δβ-arrestin, GloSensor) it was 73 ± 5%.

Source of the values: paper PMC12175894 (Science Advances, 2025).
